Converted amounts (≈) assume the structure as drawn.
What was measured:
Candida albicans [1] = assay: Fungicidal activity against Candida albicans MTCC 7315 after 24 hrs by serial dilution method; format: functional; details: MTCC 7315, 24 h
Pichia kudriavzevii [2] = assay: Antimicrobial activity against Candida krusei MTCC 3020 after 24 hrs by well diffusion method; format: functional; details: MTCC 3020, 24 h
[3] = Cytotoxicity against human PC3 cells after 72 hrs by XTT assay; format: functional, cell-based; details: PC-3, 72 h
Candida albicans [4] = assay: Fungicidal activity against Candida albicans MTCC 3958 after 24 hrs by serial dilution method; format: functional; details: MTCC 3958, 24 h
Staphylococcus aureus [5] = assay: Antibiofilm activity against Staphylococcus aureus MTCC 96 after 24 hrs by crystal violet staining based assay; format: functional, organism-based; details: MTCC 96, 24 h
Candida albicans [6] = assay: Antimicrobial activity against Candida albicans MTCC 4748 after 24 hrs by well diffusion method; format: functional; details: MTCC 4748, 24 h
Staphylococcus aureus [7] = assay: Antibiofilm activity against Staphylococcus aureus MLS16 MTCC 2940 after 24 hrs by crystal violet staining based assay; format: functional, organism-based; details: MLS16 MTCC 2940, 24 h
Nakaseomyces glabratus [8] = assay: Antimicrobial activity against Candida glabrata MTCC 3019 after 24 hrs by well diffusion method; format: functional; details: MTCC 3019, 24 h
Nakaseomyces glabratus [9] = assay: Fungicidal activity against Candida glabrata MTCC 3019 after 24 hrs by serial dilution method; format: functional; details: MTCC 3019, 24 h
Pseudomonas aeruginosa = assay: Antimicrobial activity against Pseudomonas aeruginosa MTCC 2453 after 24 hrs by well diffusion method; format: functional; details: MTCC 2453, 24 h
Candida albicans [10] = assay: Fungicidal activity against Candida albicans MTCC 3018 after 24 hrs by serial dilution method; format: functional; details: MTCC 3018, 24 h
Raoultella planticola [11] = assay: Antimicrobial activity against Klebsiella planticola MTCC 530 after 24 hrs by well diffusion method; format: functional; details: MTCC 530, 24 h
Staphylococcus aureus [12] = assay: Bactericidal activity against Staphylococcus aureus MTCC 96 after 24 hrs by serial dilution method; format: functional; details: MTCC 96, 24 h
Bacillus subtilis [13] = assay: Antimicrobial activity against Bacillus subtilis MTCC 121 after 24 hrs by well diffusion method; format: functional; details: MTCC 121, 24 h
Micrococcus luteus [14] = assay: Bactericidal activity against Micrococcus luteus MTCC 2470 after 24 hrs by serial dilution method; format: functional; details: MTCC 2470, 24 h
Candida albicans [15] = assay: Fungicidal activity against Candida albicans MTCC 854 after 24 hrs by serial dilution method; format: functional; details: MTCC 854, 24 h
Candida albicans [16] = assay: Fungicidal activity against Candida albicans MTCC 183 after 24 hrs by serial dilution method; format: functional; details: MTCC 183, 24 h
Raoultella planticola [17] = assay: Antibiofilm activity against Klebsiella planticola MTCC 530 after 24 hrs by crystal violet staining based assay; format: functional, organism-based; details: MTCC 530, 24 h
Candida albicans [18] = assay: Antimicrobial activity against Candida albicans MTCC 183 after 24 hrs by well diffusion method; format: functional; details: MTCC 183, 24 h
Staphylococcus aureus [19] = assay: Antimicrobial activity against Staphylococcus aureus MLS16 MTCC 2940 after 24 hrs by well diffusion method; format: functional; details: MLS16 MTCC 2940, 24 h
Candida albicans [20] = assay: Fungicidal activity against Candida albicans MTCC 1637 after 24 hrs by serial dilution method; format: functional; details: MTCC 1637, 24 h
Staphylococcus aureus [21] = assay: Antimicrobial activity against Staphylococcus aureus MTCC 96 after 24 hrs by well diffusion method; format: functional; details: MTCC 96, 24 h
Raoultella planticola [22] = assay: Bactericidal activity against Klebsiella planticola MTCC 530 after 24 hrs by serial dilution method; format: functional; details: MTCC 530, 24 h
Candida parapsilosis [23] = assay: Fungicidal activity against Candida parapsilosis MTCC 1744 after 24 hrs by serial dilution method; format: functional; details: Lodderomyces parapsilosis, MTCC 1744, 24 h
Candida albicans [24] = assay: Antimicrobial activity against Candida albicans MTCC 3958 after 24 hrs by well diffusion method; format: functional; details: MTCC 3958, 24 h
Micrococcus luteus [25] = assay: Antibiofilm activity against Micrococcus luteus MTCC 2470 after 24 hrs by crystal violet staining based assay; format: functional, organism-based; details: MTCC 2470, 24 h
Pichia kudriavzevii [26] = assay: Fungicidal activity against Candida krusei MTCC 3020 after 24 hrs by serial dilution method; format: functional; details: MTCC 3020, 24 h
Candida albicans [27] = assay: Antimicrobial activity against Candida albicans MTCC 854 after 24 hrs by well diffusion method; format: functional; details: MTCC 854, 24 h
Candida albicans [28] = assay: Antimicrobial activity against Candida albicans MTCC 7315 after 24 hrs by well diffusion method; format: functional; details: MTCC 7315, 24 h
Bacillus subtilis [29] = assay: Bactericidal activity against Bacillus subtilis MTCC 121 after 24 hrs by serial dilution method; format: functional; details: MTCC 121, 24 h
[Candida] aaseri [30] = Antimicrobial activity against Candida aaseri MTCC 1962 after 24 hrs by well diffusion method; format: functional; details: Yamadazyma aaseri, MTCC 1962, 24 h
Staphylococcus aureus [31] = assay: Bactericidal activity against Staphylococcus aureus MLS16 MTCC 2940 after 24 hrs by serial dilution method; format: functional; details: MLS16 MTCC 2940, 24 h
Candida albicans [32] = assay: Antimicrobial activity against Candida albicans MTCC 227 after 24 hrs by well diffusion method; format: functional; details: MTCC 227, 24 h
Candida albicans [33] = assay: Antimicrobial activity against Candida albicans MTCC 3017 after 24 hrs by well diffusion method; format: functional; details: MTCC 3017, 24 h
Pichia sporocuriosa [34] = assay: Antimicrobial activity against Issatchenkia hanoiensis MTCC 4755 after 24 hrs by well diffusion method; format: functional; details: MTCC 4755, 24 h
Candida albicans [35] = assay: Antimicrobial activity against Candida albicans MTCC 1637 after 24 hrs by well diffusion method; format: functional; details: MTCC 1637, 24 h
Micrococcus luteus [36] = assay: Antimicrobial activity against Micrococcus luteus MTCC 2470 after 24 hrs by well diffusion method; format: functional; details: MTCC 2470, 24 h
Candida albicans [37] = assay: Fungicidal activity against Candida albicans MTCC 4748 after 24 hrs by serial dilution method; format: functional; details: MTCC 4748, 24 h
Bacillus subtilis [38] = assay: Antibiofilm activity against Bacillus subtilis MTCC 121 after 24 hrs by crystal violet staining based assay; format: functional, organism-based; details: MTCC 121, 24 h
[Candida] aaseri [39] = Fungicidal activity against Candida aaseri MTCC 1962 after 24 hrs by serial dilution method; format: functional; details: Yamadazyma aaseri, MTCC 1962, 24 h
A549 = assay: Cytotoxicity against human A549 cells after 72 hrs by XTT assay; format: functional, cell-based; details: A549, 72 h
Pichia sporocuriosa [40] = assay: Fungicidal activity against Issatchenkia hanoiensis MTCC 4755 after 24 hrs by serial dilution method; format: functional; details: MTCC 4755, 24 h
Candida albicans [41] = assay: Fungicidal activity against Candida albicans MTCC 227 after 24 hrs by serial dilution method; format: functional; details: MTCC 227, 24 h
Candida parapsilosis [42] = assay: Antimicrobial activity against Candida parapsilosis MTCC 1744 after 24 hrs by well diffusion method; format: functional; details: Lodderomyces parapsilosis, MTCC 1744, 24 h
Candida albicans [43] = assay: Antimicrobial activity against Candida albicans MTCC 3018 after 24 hrs by well diffusion method; format: functional; details: MTCC 3018, 24 h
Candida albicans [44] = assay: Fungicidal activity against Candida albicans MTCC 3017 after 24 hrs by serial dilution method; format: functional; details: MTCC 3017, 24 h
Escherichia coli = assay: Antimicrobial activity against Escherichia coli MTCC 739 after 24 hrs by well diffusion method; format: functional; details: MTCC 739, 24 h

With `CCCN(C)C(=O)c1ccc(-c2cc(C3=C(N4CC4)C(=O)C=C(N4CC4)C3=O)no2)s1` the MFC (Candida albicans [1]) was 31.2 µg/mL (≈ 71.2 µM), the MIC (Pichia kudriavzevii [2]) was 15.6 µg/mL (≈ 35.6 µM) and the IC50 [3] was 0.6 µM. For the same compound, the MFC (Candida albicans [4]) was 125 µg/mL (≈ 285 µM), the IC50 (Staphylococcus aureus [5]) was 4.6 µM and the MIC (Candida albicans [6]) was 31.2 µg/mL (≈ 71.2 µM). For the same compound, the IC50 (Staphylococcus aureus [7]) was 10.6 µM, the MIC (Nakaseomyces glabratus [8]) was 15.6 µg/mL (≈ 35.6 µM) and the MFC (Nakaseomyces glabratus [9]) was 31.2 µg/mL (≈ 71.2 µM). The MIC (Pseudomonas aeruginosa) was > 125 µg/mL, the MFC (Candida albicans [10]) was 125 µg/mL (≈ 285 µM) and the MIC (Raoultella planticola [11]) was 7.8 µg/mL (≈ 17.8 µM). For the same compound, the MBC (Staphylococcus aureus [12]) was 15.6 µg/mL (≈ 35.6 µM), the MIC (Bacillus subtilis [13]) was 3.9 µg/mL (≈ 8.89 µM) and the MBC (Micrococcus luteus [14]) was 31.2 µg/mL (≈ 71.2 µM). The MFC (Candida albicans [15]) was 125 µg/mL (≈ 285 µM), the MFC (Candida albicans [16]) was 62.5 µg/mL (≈ 143 µM) and the IC50 (Raoultella planticola [17]) was 3.5 µM. It also gave an MIC (Candida albicans [18]) of 31.2 µg/mL (≈ 71.2 µM), an MIC (Staphylococcus aureus [19]) of 15.6 µg/mL (≈ 35.6 µM) and an MFC (Candida albicans [20]) of 125 µg/mL (≈ 285 µM). The MIC (Staphylococcus aureus [21]) was 7.8 µg/mL (≈ 17.8 µM), the MBC (Raoultella planticola [22]) was 15.6 µg/mL (≈ 35.6 µM) and the MFC (Candida parapsilosis [23]) was 31.2 µg/mL (≈ 71.2 µM). For the same compound, the MIC (Candida albicans [24]) was 62.5 µg/mL (≈ 143 µM), the IC50 (Micrococcus luteus [25]) was 8.9 µM and the MFC (Pichia kudriavzevii [26]) was 31.2 µg/mL (≈ 71.2 µM). The MIC (Candida albicans [27]) was 62.5 µg/mL (≈ 143 µM), the MIC (Candida albicans [28]) was 15.6 µg/mL (≈ 35.6 µM) and the MBC (Bacillus subtilis [29]) was 7.8 µg/mL (≈ 17.8 µM). It also gave an MIC ([Candida] aaseri [30]) of 7.8 µg/mL (≈ 17.8 µM), an MBC (Staphylococcus aureus [31]) of 31.2 µg/mL (≈ 71.2 µM) and an MIC (Candida albicans [32]) of 62.5 µg/mL (≈ 143 µM). The MIC (Candida albicans [33]) was 7.8 µg/mL (≈ 17.8 µM), the MIC (Pichia sporocuriosa [34]) was 15.6 µg/mL (≈ 35.6 µM) and the MIC (Candida albicans [35]) was 62.5 µg/mL (≈ 143 µM). The MIC (Micrococcus luteus [36]) was 15.6 µg/mL (≈ 35.6 µM), the MFC (Candida albicans [37]) was 62.5 µg/mL (≈ 143 µM) and the IC50 (Bacillus subtilis [38]) was 2.2 µM. For the same compound, the MFC ([Candida] aaseri [39]) was 15.6 µg/mL (≈ 35.6 µM), the IC50 (A549) was 2.7 µM and the MFC (Pichia sporocuriosa [40]) was 62.5 µg/mL (≈ 143 µM). For the same compound, the MFC (Candida albicans [41]) was 125 µg/mL (≈ 285 µM), the MIC (Candida parapsilosis [42]) was 15.6 µg/mL (≈ 35.6 µM) and the MIC (Candida albicans [43]) was 31.2 µg/mL (≈ 71.2 µM). For the same compound, the MFC (Candida albicans [44]) was 31.2 µg/mL (≈ 71.2 µM) and the MIC (Escherichia coli) was > 125 µg/mL.

From ChEMBL document CHEMBL3808371, “Design, synthesis and biological evaluation of diaziridinyl quinone isoxazole hybrids” (Eur J Med Chem, 2016)
